Test results: US4808517A (priority 1985, dated 1989)

Tested on: submitochondrial particles
Type: biochemical

Oc1c(Cl)c(Cl)c(Cl)c(Cl)c1Cl [Pentachlorophenol]
Inhibition of maximum NADH concentration: 39%
